Results as given in patent US20250276964A1 (Novartis AG, priority 2021, published 2025).

Target: T1, WIZ (Homo sapiens, UniProt O95785+Q96SW2)
T1 construct: expressed in transfected cells
Experiment: Quantification of WIZ protein levels in HiBit tag fusion protein assay (WIZ HiBit assay in 293T cells)
Format: cell-based
Conditions: for Dmax at 25 µM / remaining activity at 25 µM: HEK-293T; for Dmax at 25 µM / % degradation of WIZ (100-Amax): 100 minus Amax at 25 uM; for Dmax at 25 µM: read-out: % degradation of WIZ (100-Amax); for remaining activity at 25 µM / WIZ Amax: DMSO-normalized, curve-fitted percentage of WIZ-HiBit remaining at 25 uM; for remaining activity at 25 µM: read-out: WIZ Amax; for DC50: WIZ HiBit assay in 293T cells, 10-point, 5-fold dilution, highest concentration 25 μM, about 18 hours, read-out: WIZ AC50
Outline: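 293T cells stably carrying single-copy HiBit-WIZ (HSVTK promoter) treated ~18 h at 37 °C with 10-point, 5-fold dilutions, top 25 μM. Lytic HiBit luminescence read; Amax is DMSO-normalised, curve-fitted % WIZ-HiBit remaining at 25 uM.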

T1 sequence (O95785 whole entry): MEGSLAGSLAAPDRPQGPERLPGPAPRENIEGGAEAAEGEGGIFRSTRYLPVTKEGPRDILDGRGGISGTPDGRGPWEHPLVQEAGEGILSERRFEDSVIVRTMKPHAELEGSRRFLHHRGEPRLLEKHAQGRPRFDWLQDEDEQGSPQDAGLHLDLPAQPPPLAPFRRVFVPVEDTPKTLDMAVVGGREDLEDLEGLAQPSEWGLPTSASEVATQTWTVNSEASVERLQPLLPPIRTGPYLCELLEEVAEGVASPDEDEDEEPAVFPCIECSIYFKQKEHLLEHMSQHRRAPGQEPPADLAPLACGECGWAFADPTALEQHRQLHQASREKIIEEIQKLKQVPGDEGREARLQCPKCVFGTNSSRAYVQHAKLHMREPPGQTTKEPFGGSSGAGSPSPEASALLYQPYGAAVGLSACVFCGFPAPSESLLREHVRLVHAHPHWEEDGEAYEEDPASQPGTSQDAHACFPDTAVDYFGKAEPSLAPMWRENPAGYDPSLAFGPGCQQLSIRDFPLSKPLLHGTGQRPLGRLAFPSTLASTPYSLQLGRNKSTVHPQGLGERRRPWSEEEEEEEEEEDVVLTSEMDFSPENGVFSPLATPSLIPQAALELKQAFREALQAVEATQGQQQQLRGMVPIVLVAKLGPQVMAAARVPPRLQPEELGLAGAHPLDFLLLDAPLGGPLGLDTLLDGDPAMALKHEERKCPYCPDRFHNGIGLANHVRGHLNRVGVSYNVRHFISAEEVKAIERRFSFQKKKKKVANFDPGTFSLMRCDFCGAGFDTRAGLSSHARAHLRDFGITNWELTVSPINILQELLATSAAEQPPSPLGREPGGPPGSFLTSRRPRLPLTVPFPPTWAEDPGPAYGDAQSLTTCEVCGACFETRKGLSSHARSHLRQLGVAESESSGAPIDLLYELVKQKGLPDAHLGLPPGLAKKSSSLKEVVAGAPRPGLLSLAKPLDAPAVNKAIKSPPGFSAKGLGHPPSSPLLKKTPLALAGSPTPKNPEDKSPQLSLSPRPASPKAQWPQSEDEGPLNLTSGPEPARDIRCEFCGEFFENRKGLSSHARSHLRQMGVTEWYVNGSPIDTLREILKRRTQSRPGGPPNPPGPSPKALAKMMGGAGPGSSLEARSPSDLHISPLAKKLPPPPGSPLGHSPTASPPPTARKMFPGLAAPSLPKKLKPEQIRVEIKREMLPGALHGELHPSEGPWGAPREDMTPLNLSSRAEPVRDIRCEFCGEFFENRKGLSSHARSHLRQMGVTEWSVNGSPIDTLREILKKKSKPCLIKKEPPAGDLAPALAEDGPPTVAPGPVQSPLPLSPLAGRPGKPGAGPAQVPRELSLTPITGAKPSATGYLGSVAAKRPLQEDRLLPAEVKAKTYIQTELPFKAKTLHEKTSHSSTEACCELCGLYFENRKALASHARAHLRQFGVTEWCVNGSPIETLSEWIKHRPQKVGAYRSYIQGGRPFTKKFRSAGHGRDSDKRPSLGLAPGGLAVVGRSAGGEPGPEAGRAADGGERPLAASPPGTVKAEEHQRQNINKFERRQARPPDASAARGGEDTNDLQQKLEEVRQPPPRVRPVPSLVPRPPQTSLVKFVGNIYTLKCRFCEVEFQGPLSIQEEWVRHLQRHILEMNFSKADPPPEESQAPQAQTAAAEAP
T1 sequence (Q96SW2 whole entry): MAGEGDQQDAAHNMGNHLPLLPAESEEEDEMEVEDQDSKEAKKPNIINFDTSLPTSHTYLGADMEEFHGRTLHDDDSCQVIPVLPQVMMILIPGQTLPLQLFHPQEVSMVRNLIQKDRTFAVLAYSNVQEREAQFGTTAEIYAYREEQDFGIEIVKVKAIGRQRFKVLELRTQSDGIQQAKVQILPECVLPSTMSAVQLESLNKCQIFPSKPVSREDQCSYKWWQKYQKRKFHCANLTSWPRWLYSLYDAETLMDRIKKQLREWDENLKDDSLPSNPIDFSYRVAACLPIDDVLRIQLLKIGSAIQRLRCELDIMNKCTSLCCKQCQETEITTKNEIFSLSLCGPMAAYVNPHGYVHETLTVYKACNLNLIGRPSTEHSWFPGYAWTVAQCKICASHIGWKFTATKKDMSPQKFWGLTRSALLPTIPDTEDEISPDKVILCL
T1 sequence (Q16531 whole entry partner): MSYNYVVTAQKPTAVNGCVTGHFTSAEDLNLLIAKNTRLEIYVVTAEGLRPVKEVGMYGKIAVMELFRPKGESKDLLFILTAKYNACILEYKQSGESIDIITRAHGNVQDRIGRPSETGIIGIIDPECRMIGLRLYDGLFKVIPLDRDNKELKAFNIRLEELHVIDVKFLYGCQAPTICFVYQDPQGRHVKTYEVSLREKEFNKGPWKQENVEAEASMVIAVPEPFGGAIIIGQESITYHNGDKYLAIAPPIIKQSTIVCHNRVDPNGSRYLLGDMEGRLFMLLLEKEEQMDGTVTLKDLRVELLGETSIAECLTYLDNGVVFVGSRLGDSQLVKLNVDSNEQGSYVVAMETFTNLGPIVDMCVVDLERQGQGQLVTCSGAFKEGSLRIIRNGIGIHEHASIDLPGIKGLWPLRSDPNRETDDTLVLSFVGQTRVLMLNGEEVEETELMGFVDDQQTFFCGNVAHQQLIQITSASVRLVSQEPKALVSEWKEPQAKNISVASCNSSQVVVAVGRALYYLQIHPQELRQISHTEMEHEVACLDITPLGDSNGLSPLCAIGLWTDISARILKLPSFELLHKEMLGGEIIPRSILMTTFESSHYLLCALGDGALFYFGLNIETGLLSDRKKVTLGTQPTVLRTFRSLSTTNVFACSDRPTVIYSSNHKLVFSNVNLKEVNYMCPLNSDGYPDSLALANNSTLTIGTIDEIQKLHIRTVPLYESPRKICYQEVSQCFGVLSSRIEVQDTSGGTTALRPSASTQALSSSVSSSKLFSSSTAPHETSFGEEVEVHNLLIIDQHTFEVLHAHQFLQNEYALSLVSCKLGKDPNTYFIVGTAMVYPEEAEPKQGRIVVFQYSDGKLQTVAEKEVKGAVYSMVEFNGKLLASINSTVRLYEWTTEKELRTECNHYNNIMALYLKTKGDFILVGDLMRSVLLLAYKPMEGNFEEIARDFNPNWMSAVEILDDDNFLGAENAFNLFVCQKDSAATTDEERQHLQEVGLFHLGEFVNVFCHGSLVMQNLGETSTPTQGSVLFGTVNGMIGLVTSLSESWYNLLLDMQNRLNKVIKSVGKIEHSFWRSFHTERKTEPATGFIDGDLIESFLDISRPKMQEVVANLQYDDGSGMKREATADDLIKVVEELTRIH

Row | Compound | Dmax at 25 µM [%] | remaining activity at 25 µM [%] | DC50 [nM] | % degradation of WIZ (100-Amax) [%] | WIZ Amax [%]
1 | C[C@H]1CN(CC2CCOCC2)[C@@H](C)CN1Cc1ccc2onc(N3CCC(=O)NC3=O)c2c1 [Example 107, 1-(5-(((2S,5S)-2,5-dimethyl-4-((tetrahydro-2H-pyran-4-yl)methyl)piperazin-1-yl)methyl)benzo[d]isoxazol-3-yl)dihydropyrimidine-2,4(1H,3H)-dione] | 86 | 14 | 56 | – | –
2 | C[C@@H]1CN(C(=O)N2CCCC2)CCN1Cc1ccc2onc(N3CCC(=O)NC3=O)c2c1 [Example 75, (R)-1-(5-((2-methyl-4-(pyrrolidine-1-carbonyl)piperazin-1-yl)methyl)benzo[d]isoxazol-3-yl)dihydropyrimidine-2,4(1H,3H)-dione] | 78 | 22 | 132 | – | –
3 | Cc1c(CN2CCN(CC3CC3)[C@@H](C)C2)ccc2onc(N3CCC(=O)NC3=O)c12 [Example 130, (S)-1-(5-((4-(cyclopropylmethyl)-3-methylpiperazin-1-yl)methyl)-4-methylbenzo[d]isoxazol-3-yl)dihydropyrimidine-2,4(1H,3H)-dione] | 86 | 14 | 6 | – | –
4 | O=C1CCN(c2noc3ccc(CC4CCN(CC5CCC5)CC4)cc23)C(=O)N1 [Example 3, 1-(5-((1-(cyclobutylmethyl)piperidin-4-yl)methyl)benzo[d]isoxazol-3-yl)dihydropyrimidine-2,4(1H,3H)-dione] | 92 | 8 | 10 | – | –
5 | O=C1CCN(c2noc3ccc(CN4CCN(Cc5cccc(F)c5)CC4)cc23)C(=O)N1 [Example 27, 1-(5-((4-(3-fluorobenzyl)piperazin-1-yl)methyl)benzo[d]isoxazol-3-yl)dihydropyrimidine-2,4(1H,3H)-dione] | 86 | 14 | 210 | – | –
6 | CN1C[C@@H]2C[C@H]1CN2Cc1ccc2onc(N3CCC(=O)NC3=O)c2c1 [Example 94] | 76 | 24 | 364 | – | –
7 | O=C1CCN(c2noc3ccc(CN4CCN(CC5CCOCC5)[C@@H](C(F)F)C4)cc23)C(=O)N1 [Example 115, (R)-1-(5-((3-(difluoromethyl)-4-((tetrahydro-2H-pyran-4-yl)methyl)piperazin-1-yl)methyl)benzo[d]isoxazol-3-yl)dihydropyrimidine-2,4(1H,3H)-dione] | 78 | 22 | 53 | – | –
8 | CC(C)CN1CCN(Cc2ccc3onc(N4CCC(=O)NC4=O)c3c2)[C@@H](C)C1 [Example 32, (S)-1-(5-((4-isobutyl-2-methylpiperazin-1-yl)methyl)benzo[d]isoxazol-3-yl)dihydropyrimidine-2,4(1H,3H)-dione] | 91 | 9 | 99 | – | –
9 | Cc1ccccc1CN1CCC(Cc2ccc3onc(N4CCC(=O)NC4=O)c3c2)CC1 [Example 12, 1-(5-((1-(2-methylbenzyl)piperidin-4-yl)methyl)benzo[d]isoxazol-3-yl)dihydropyrimidine-2,4(1H,3H)-dione] | 90 | 10 | 44 | – | –
10 | CN1[C@@H]2CC[C@H]1CC(Cc1ccc3onc(N4CCC(=O)NC4=O)c3c1)C2 (stereo partly drawn) [Example 58, 1-(5-(((1R,5S)-8-methyl-8-azabicyclo[3.2.1]octan-3-yl)methyl)benzo[d]isoxazol-3-yl)dihydropyrimidine-2,4(1H,3H)-dione] | 89 | 11 | 20 | – | –
11 | O=C1CCN(c2noc3ccc(CN4CCN(Cc5ccccc5)CC4)cc23)C(=O)N1 [Example 25, 1-(5-((4-benzylpiperazin-1-yl)methyl)benzo[d]isoxazol-3-yl)dihydropyrimidine-2,4(1H,3H)-dione] | 87 | 13 | 130 | – | –
12 | C[C@@H]1CN(C2CCOCC2)CCN1Cc1ccc2onc(N3CCC(=O)NC3=O)c2c1 [Example 78, (R)-1-(5-((2-methyl-4-(tetrahydro-2H-pyran-4-yl)piperazin-1-yl)methyl)benzo[d]isoxazol-3-yl)dihydropyrimidine-2,4(1H,3H)-dione] | 80 | 20 | 37 | – | –
13 | CC(C)(C)OC(=O)N1C[C@H]2C[C@@H]1CN2Cc1ccc2onc(N3CCC(=O)NC3=O)c2c1 [Example 96, tert-butyl (1R,4R)-5-((3-(2,4-dioxotetrahydropyrimidin-1(2H)-yl)benzo[d]isoxazol-5-yl)methyl)-2,5-diazabicyclo[2.2.1]heptane-2-carboxylate] | 66 | 34 | 1090 | – | –
14 | CC(C)N1CCN(Cc2ccc3onc(N4CCC(=O)NC4=O)c3c2)[C@H](C)C1 [Example 69, (R)-1-(5-((4-isopropyl-2-methylpiperazin-1-yl)methyl)benzo[d]isoxazol-3-yl)dihydropyrimidine-2,4(1H,3H)-dione] | 83 | 17 | 45 | – | –
15 | CC(C)(C)OC(=O)N1[C@@H]2CC[C@H]1CC(Cc1ccc3onc(N4CCC(=O)NC4=O)c3c1)C2 (single isomer, unassigned) [Example 54] | – | – | 196 | 92 | 8
16 | CN1CCC(Cc2ccc3onc(N4CCC(=O)NC4=O)c3c2)C1 (stereo not drawn) [Example 50, 1-(5-((1-methylpyrrolidin-3-yl)methyl)benzo[d]isoxazol-3-yl)dihydropyrimidine-2,4(1H,3H)-dione] | 78 | 22 | 448 | – | –
17 | CS(=O)(=O)N1CCN(Cc2ccc3onc(N4CCC(=O)NC4=O)c3c2)CC1 [Example 83, 1-(5-((4-(methylsulfonyl)piperazin-1-yl)methyl)benzo[d]isoxazol-3-yl)dihydropyrimidine-2,4(1H,3H)-dione] | 83 | 17 | 93 | – | –
18 | CC(C)(C)OC(=O)N1CCCC(Cc2ccc3onc(N4CCC(=O)NC4=O)c3c2)CC1 (stereo not drawn) [Example 51, tert-butyl 4-((3-(2,4-dioxotetrahydropyrimidin-1 (2H)-yl)benzo[d]isoxazol-5-yl)methyl)azepane-1-carboxylate] | 87 | 13 | 392 | – | –
19 | O=C1CCN(c2noc3ccc(CC4C[C@H]5CC[C@@H](C4)N5)cc23)C(=O)N1 (stereo partly drawn) [Example 56, 1-(5-(((1R,5S)-8-azabicyclo[3.2.1]octan-3-yl)methyl)benzo[d]isoxazol-3-yl)dihydropyrimidine-2,4(1H,3H)-dione] | – | – | 251 | 45 | 55
20 | O=C1CCN(c2noc3ccc(CN4CCN(CC5CCOCC5)CC4)cc23)C(=O)N1 [Example 23, 1-(5-((4-((tetrahydro-2H-pyran-4-yl)methyl)piperazin-1-yl)methyl)benzo[d]isoxazol-3-yl)dihydropyrimidine-2,4(1H,3H)-dione] | 91 | 9 | 4 | – | –
21 | C[C@@H]1CN(S(=O)(=O)N2CCCC2)CCN1Cc1ccc2onc(N3CCC(=O)NC3=O)c2c1 [Example 74, (R)-1-(5-((2-methyl-4-(pyrrolidin-1-ylsulfonyl)piperazin-1-yl)methyl)benzo[d]isoxazol-3-yl)dihydropyrimidine-2,4(1H,3H)-dione] | 76 | 24 | 437 | – | –
22 | CN1CC2CCC1CN2Cc1ccc2onc(N3CCC(=O)NC3=O)c2c1 (single isomer, unassigned) [Example 124, 1-(5-((5-methyl-2,5-diazabicyclo[2.2.2]octan-2-yl)methyl)benzo[d]isoxazol-3-yl)dihydropyrimidine-2,4(1H,3H)-dione] | – | – | 520 | 85 | 15
23 | CS(=O)(=O)N1CC2CCC1CN2Cc1ccc2onc(N3CCC(=O)NC3=O)c2c1 (single isomer, unassigned) [Example 126, 1-(5-((5-(methylsulfonyl)-2,5-diazabicyclo[2.2.2]octan-2-yl)methyl)benzo[d]isoxazol-3-yl)dihydropyrimidine-2,4(1H,3H)-dione] | – | – | 134 | 83 | 17
24 | O=C1CCN(c2noc3ccc(CC4CCNC4)cc23)C(=O)N1 (stereo not drawn) [Example 48, 1-(5-(pyrrolidin-3-ylmethyl)benzo[d]isoxazol-3-yl)dihydropyrimidine-2,4(1H,3H)-dione] | 77 | 23 | 1160 | – | –
25 | O=C1CCN(c2noc3ccc(CN4C[C@@H]5C[C@H]4CN5CC4CCOCC4)cc23)C(=O)N1 [Example 95, 1-(5-(((1S,4S)-5-((tetrahydro-2H-pyran-4-yl)methyl)-2,5-diazabicyclo[2.2.1]heptan-2-yl)methyl)benzo[d]isoxazol-3-yl)dihydropyrimidine-2,4(1H,3H)-dione] | 82 | 18 | 188 | – | –
26 | O=C1CCN(c2noc3ccc(CC4CCN(Cc5cccc(F)c5)CC4)cc23)C(=O)N1 [Example 7, 1-(5-((1-(3-fluorobenzyl)piperidin-4-yl)methyl)benzo[d]isoxazol-3-yl)dihydropyrimidine-2,4(1H,3H)-dione] | 91 | 9 | 18 | – | –
27 | CC(C)CN1CCCC(Cc2ccc3onc(N4CCC(=O)NC4=O)c3c2)C1 (stereo not drawn) [Example 46, 1-(5-((1-isobutylpiperidin-3-yl)methyl)benzo[d]isoxazol-3-yl)dihydropyrimidine-2,4(1H,3H)-dione] | 77 | 23 | 197 | – | –
